Measurements as given in US20240300933A1, “SALT AND CRYSTAL FORMS OF AN HMOX1 INDUCER” (MITOBRIDGE INC., priority 2021, published 2024).
Converted amounts (≈) assume the structure as drawn. Values belong to the compound of their own block, whether it stands above or below them.

Key:
[1] = Thermodynamic solubility in water and bio-media (SGF, FaSSIF, FeSSIF) at 37° C.; format: physicochemical; conditions: for pH / FC (Form Change) / solubility at 1 h / solubility at 4 h / solubility at 24 h: 37° C.; for pH: filtrate of supernatant; for solubility at 1 h / solubility at 4 h / solubility at 24 h: thermodynamic from solid
Description: Specifically, about 40 mg samples (calculated with freebase) were added to 4.0 mL of each buffer. After shaking at 100 rpm at 37° C. for 1/4/24 hour(s), about 1.0 mL of each suspension was centrifuged for 5 minutes. The solids were analyzed by XRPD for crystal form, and the filtrates of supernatants were detected by HPLC for solubility and by pH meter for pH value.

[2] = PK study in Cynomolgus macaques, PO single dose; format: in vivo, Cynomolgus macaques (Macaca fascicularis); conditions: for exposure (AUC) compared to the free form, in words: Cynomolgus monkeys, monophosphate; for AUC(0-inf) / AUC(0-t) / Cmax: male, cynomolgus monkey, blood
Description: A PK Study of Crystalline form of 1:1 compound (I) Phosphate and compound (I) crystal form was conducted in Cynomolgus macaques (Cynomolgus non-human primates; Macaca fascicularis). […] Blood samples were collected at 0.25, 0.5, 1, 2, 4, 6, 8 and 24 hours, and were analyzed to determine Cmax and exposure (AUC).

[3] = Hygroscopicity by dynamic vapor sorption (DVS); conditions: for weight gain: DVS, 25° C., at 90% RH; for hygroscopicity compared with the citrate salt, in words: monophosphate
Description: Dynamic vapor sorption (DVS) was performed with an ADVENTURE series DVS at 25° C. under nitrogen blow. Approximately 30 milligrams of material was used.

pKa of the freebase form = format: physicochemical; conditions: basic
[4] = simulated gastric fluid, SGF, 1 Hr
[5] = simulated gastric fluid, SGF, 4 Hrs
[6] = simulated gastric fluid, SGF, 24 Hrs
[7] = Cynomolgus macaques, 10 mg/Kg PO single dose
[8] = Cynomolgus macaques, 100 mg/Kg PO single dose

solubility compared to Compound (I), in words ([1]; FaSSIF and SGF): improved solubility
pH ([1]; FaSSIF, 1 Hr): 2.37
FC (Form Change) ([1]; FaSSIF, 1 Hr, solid by XRPD): Yes
pH ([1]; FaSSIF, 4 Hrs): 2.37
pH ([1]; FaSSIF, 24 Hrs): 2.36
pH ([1]; FeSSIF, 1 Hr): 4.06
FC (Form Change) ([1]; FeSSIF, 1 Hr, solid by XRPD): Yes
pH ([1]; FeSSIF, 4 Hrs): 4.21
pH ([1]; FeSSIF, 24 Hrs): 4.31
FC (Form Change) ([1]; SGF, 1 Hr): Clear
pH ([1]; SGF, 1 Hr): 1.36
FC (Form Change) ([1]; SGF, 4 Hrs): Clear
pH ([1]; SGF, 4 Hrs): 1.37
FC (Form Change) ([1]; SGF, 24 Hrs): Clear
pH ([1]; SGF, 24 Hrs): 1.41
solubility at 1 h [1, 4]: > 25900 µg/mL
solubility at 4 h [1, 5]: > 28400 µg/mL
solubility at 24 h [1, 6]: > 28400 µg/mL
solubility at 1 h ([1]; FaSSIF, 1 Hr): 190 µg/mL
solubility at 4 h ([1]; FaSSIF, 4 Hrs): 180 µg/mL
solubility at 24 h ([1]; FaSSIF, 24 Hrs): 70 µg/mL
solubility at 1 h ([1]; FeSSIF, 1 Hr): 1400 µg/mL
solubility at 4 h ([1]; FeSSIF, 4 Hrs): 770 µg/mL
solubility at 24 h ([1]; FeSSIF, 24 Hrs): 390 µg/mL
solubility at 1 h ([1]; water, 1 Hr): 4390 µg/mL
solubility at 4 h ([1]; water, 4 Hrs): 3230 µg/mL
solubility at 24 h ([1]; water, 24 Hrs): 2060 µg/mL
solubility compared to the free form, in words ([1]; water and bio-relevant media): significant solubility improvement
pH ([1]; water, 1 Hr): 2.05
FC (Form Change) ([1]; water, 1 Hr, solid by XRPD): Yes
pH ([1]; water, 4 Hrs): 2.04
pH ([1]; water, 24 Hrs): 1.97
higher exposure compared to free form Compound (I) ([2]; Cynomolgus macaques, 10 and 100 mpk oral dose): 1.5 times
Cmax compared to the free form, in words ([2]; Cynomolgus macaques, Table 7): roughly double
exposure (AUC) compared to the free form, in words ([2]; 10 and 100 mpk oral dose, listed as phosphate salt): roughly double
exposure (AUC) compared to the free form, in words ([2]; 10 and 100 mpk oral dose): roughly twice the exposure
AUC(0-inf) [2, 7]: 3590 ng·h/mL
AUC(0-t) [2, 7]: 3480 ng·h/mL
Cmax [2, 7]: 322 ng/mL
AUC(0-inf) [2, 8]: 9330 ng·h/mL
AUC(0-t) [2, 8]: 7580 ng·h/mL
Cmax [2, 8]: 723 ng/mL
weight gain [3]: 0.835%
hygroscopicity compared with the citrate salt, in words ([3]; listed as phosphate salt): lower hygroscopicity
hygroscopicity compared with the citrate salt, in words [3]: low hygroscopicity
Compound: Cn1c(Nc2nc3ccccc3o2)nc2cc(C(=O)NCCOCCO)ccc21.O=P(O)(O)O [1:1 Compound (I) Phosphate, 2-[(1,3-benzoxazol-2-yl)amino]-N-[2-(2-hydroxyethoxy)ethyl]-1-methyl-1H-benzimidazole-5-carboxamide monophosphate]

pKa (pKa of the freebase form): ~2.75
pH ([1]; FaSSIF, 1 Hr): 6.30
FC (Form Change) ([1]; FaSSIF, 1 Hr, solid by XRPD): No
pH ([1]; FaSSIF, 4 Hrs): 6.35
FC (Form Change) ([1]; FaSSIF, 4 Hrs, solid by XRPD): No
pH ([1]; FaSSIF, 24 Hrs): 5.99
FC (Form Change) ([1]; FaSSIF, 24 Hrs, solid by XRPD): No
pH ([1]; FeSSIF, 1 Hr): 4.78
FC (Form Change) ([1]; FeSSIF, 1 Hr, solid by XRPD): No
pH ([1]; FeSSIF, 4 Hrs): 4.73
FC (Form Change) ([1]; FeSSIF, 4 Hrs, solid by XRPD): No
pH ([1]; FeSSIF, 24 Hrs): 4.81
FC (Form Change) ([1]; FeSSIF, 24 Hrs, solid by XRPD): No
FC (Form Change) ([1]; SGF, 1 Hr): No
pH ([1]; SGF, 1 Hr): 2.34
FC (Form Change) ([1]; SGF, 4 Hrs): No
pH ([1]; SGF, 4 Hrs): 2.16
FC (Form Change) ([1]; SGF, 24 Hrs): No
pH ([1]; SGF, 24 Hrs): 2.51
solubility at 1 h [1, 4]: 7040 µg/mL (≈ 17.8 mM)
solubility at 4 h [1, 5]: 6860 µg/mL (≈ 17.3 mM)
solubility at 24 h [1, 6]: 7080 µg/mL (≈ 17.9 mM)
pH ([1]; water, 1 Hr): 5.69
FC (Form Change) ([1]; water, 1 Hr, solid by XRPD): No
pH ([1]; water, 4 Hrs): 5.07
FC (Form Change) ([1]; water, 4 Hrs, solid by XRPD): No
pH ([1]; water, 24 Hrs): 5.95
FC (Form Change) ([1]; water, 24 Hrs, solid by XRPD): No
AUC(0-inf) [2, 7]: 2030 ng·h/mL
AUC(0-t) [2, 7]: 1920 ng·h/mL
Cmax [2, 7]: 164 ng/mL
AUC(0-inf) [2, 8]: 4740 ng·h/mL
AUC(0-t) [2, 8]: 4080 ng·h/mL
Cmax [2, 8]: 350 ng/mL
Compound: Cn1c(Nc2nc3ccccc3o2)nc2cc(C(=O)NCCOCCO)ccc21 [Compound (I), 2-[(1,3-benzoxazol-2-yl)amino]-N-[2-(2-hydroxyethoxy)ethyl]-1-methyl-1H-benzimidazole-5-carboxamide]

Compound: Citrate
weight gain [3]: 3.223%
